Data from patent US12428428B2, “Tricyclic tetrahydroisoquinoline derivative, preparation method therefor and application thereof in medicine” (JIANGSU HENGRUI MEDICINE CO., LTD., priority 2020, dated 2025).

Target: CYP3A4 (Homo sapiens (Human), UniProt P08684)
Test: Time-dependent inhibition of site of metabolism of midazolam in human liver microsome CYP3A4
Assay type: in vitro ADME
Details: midazolam substrate; for IC50 shift at 30 min: human, human liver microsomes, probe midazolam (3 µM)
Description: • 1. Phosphate buffer (20×PBS, purchased from Sangon); • 2. NADPH (ACROS, A2646-71-1); • 3. Human liver microsome (Corning Gentest, Cat No, 452161, Lot No. 9050002, Donor, 36); • 4. ABI QTrap 4000 LC-MS System (AB Sciex); • 5. ZORBAX Extend-C18, 3×50 mm, 3.5 μm (Agilent, USA); • 6. CYP probe substrate (midazolam, TRC, M343000/3 μM) and positive control inhibitor (verapamil, Adamas Reagent Co, Ltd, Cat No. 25904A).
A 100 mM PBS buffer was prepared. A 0.25 mg/mL microsome solution, a 7.5 mM MgCl2 and a 5 mM NADPH solution were prepared using the buffer. A 30 mM stock solution was diluted with DMSO to obtain 30 mM, 10 mM, 3 mM, 1 mM, 0.3 mM, 0.1 mM, 0.03 mM and 0 mM serial solutions I, which were further diluted 200-fold with phosphate buffer (PBS) to obtain serial test solutions II (150, 50, 15, 5, 1.5, 0.5, 0.15 and 0 μM). A midazolam working solution was diluted with PBS to 15 μM.
The serial test solutions prepared above were well mixed by shaking and aliquoted in 20 μL portions into corresponding reaction plates (+NADPH, T0 and −NADPH groups were set). Three parallel tests were set. 40 μL of the liver microsome working solution was added to each 96-well plate. 20 μL of a corresponding substrate solution was added to the T0 plate. 20 μL of NADPH was added to the TO plate and +NADPH group. A timer was started, and the plates were incubated in a water bath at 37° C. After 30 min of incubation, the TO plate was taken out, and the reaction was terminated with 250 μL of an internal standard-containing ACN solution. The +NADPH group was supplemented with 20 μL of the corresponding substrate solution, and the −NADPH group was supplemented with 20 μL of the corresponding substrate solution and […]. A timer was started, and the plates were incubated in a water bath at 37° C. After 30 min of incubation, the plates were taken out, and the reactions were terminated with 250 μL of an internal standard-containing ACN solution. Then the plates were shaken on a shaker at 800 rpm for 10 min and centrifuged at 4000 rpm for 15 min. 100 μL of the supernatant and 80 μL of ultrapure water were well mixed and subjected to LC-MS/MS analysis.
The IC50 values of the drugs for the site of metabolism of midazolam in CYP3A4 were calculated using Graphpad Prism and are shown in Table 7.

[1] = 30 min pre-incubation with NADPH

Sequence of CYP3A4 (P08684 whole entry): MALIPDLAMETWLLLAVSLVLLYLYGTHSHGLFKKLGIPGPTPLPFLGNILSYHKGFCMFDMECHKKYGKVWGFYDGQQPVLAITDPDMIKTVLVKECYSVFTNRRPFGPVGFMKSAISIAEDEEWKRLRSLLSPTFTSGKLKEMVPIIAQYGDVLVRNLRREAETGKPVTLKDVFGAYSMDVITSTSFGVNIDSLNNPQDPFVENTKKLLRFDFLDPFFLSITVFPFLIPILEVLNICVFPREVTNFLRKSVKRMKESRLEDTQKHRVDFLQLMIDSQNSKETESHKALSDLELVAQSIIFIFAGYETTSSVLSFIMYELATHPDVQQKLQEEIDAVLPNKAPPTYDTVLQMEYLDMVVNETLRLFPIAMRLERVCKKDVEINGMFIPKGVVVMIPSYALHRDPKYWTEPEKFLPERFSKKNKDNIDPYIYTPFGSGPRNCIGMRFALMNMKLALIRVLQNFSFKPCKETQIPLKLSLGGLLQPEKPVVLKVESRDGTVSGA

IC50 shift at 30 min | IC50 [1] [µM] | IC50 (pre-incubation without NADPH) [µM] | SMILES
1 | 2.43 | 2.47 | C[C@@H]1Cc2cc3c(cc2[C@@H](c2ccc(N[C@H]4CCN(CCCF)C4)cn2)N1CC(F)(F)CO)OCO3 [Example 4, 2,2-Difluoro-3-((5S,7R)-5-(5-(((S)-1-(3-fluoropropyl)pyrrolidin-3-yl)amino)pyridin-2-yl)-7-methyl-7,8-dihydro-[1,3]dioxolo[4,5-g]isoquinolin-6(5H)-yl)propan-1-ol]
0.9 | 9.16 | 10.2 | [2H]C1([2H])Oc2cc3c(cc2O1)[C@@H](c1ccc(N[C@H]2CCN(CCCF)C2)cn1)N(CC(F)(F)CO)[C@H](C)C3 [Example 12, 2,2-Difluoro-3-((5S,7R)-5-(5-(((S)-1-(3-fluoropropyl)pyrrolidin-3-yl)amino)pyridin-2-yl)-7-methyl-7,8-dihydro-[1,3]dioxolo[4,5-g]isoquinolin-6(5H)-yl-2,2-d2)propan-1-ol]
